The subject of series [1] is mouse hippocampal neuronal cell line HT22. As to the kind of experiment: Neurotoxicity and excitotoxicity assay, HT22 cells + glutamate, erastin or RSL3, MTS cell viability. Conditions: for EC50: Mus musculus. Format: cell-based. Here is the method: (§1) The excitotoxicity model used was the mouse hippocampal neuronal HT22 cells treated with glutamate [Dixon et al., Cell, 2012, 149(5), 1060-1072]. Ferroptosis and oxidative stress are both associated in this glutamate-induced cell death [Chu et al., Neural Regen. Res., 2020, 15(3), 528-536]. Phenotypic screening was also carried out with additional cell death inducers, erastin and RSL3 ((1S,3R)-Ras-selective lethal), in HT22 and SH-SY5Y (human neuroblastoma cells). Erastin and RSL3 are well described molecules, used as chemical tools for the study of ferroptosis regulation and neuronal pathologies [Lewerenz et al., Front. Neurosci., 2018, 12: 214; Reichert et al., Int. J. Mol. Sci., 2020, 21, 8765].
(§2) Mouse hippocampal neuronal cell line (HT22, ATCC) and human neuroblastoma cell line (SH-SY5Y, ATCC) were grown in Dulbecco's Modified Eagle Medium (DMEM, Gibco) supplemented with 10% fetal bovine serum (FBS, Gibco) at 37° C. under 5% CO2 atmosphere. Neurotoxicity was induced by erastin or RSL3 and excitotoxicity was induced by glutamate. Cells were seeded in 96-well plates at 5,000 and 10,000 cells/well for HT22 and SH-SY5Y cell lines, respectively. Cells were treated with 0.5-1 μM Erastin (HT22 cells) or 10 μM Erastin (SH-SY5Y cells) or 5-10 mM glutamate (HT22 cells) or 0.5 μM RSL3 (HT22 cells) or 5 μM RSL3 (SH-SY5Y cells) for 24 h in presence of increasing concentrations of inhibitors. Cells treated with DMSO only were used as controls. Cell viability was assessed by MTS assay (CellTiter 96 AQueous One Solution Cell Proliferation assay, Promega).
(§3) In FIGS. 1, 2A and 2B, an inhibitor was added to HT22 (FIG. 1: compound 6) or SH-SY5Y (FIG. 2A: compound 6; FIG. 2B: compound 25) cells in the presence or not of cell death inducers (erastin, glutamate or RSL3). […] EC50 values for compounds 1-28 were calculated from dose-response curves using Graphpad Prism software.

Series [2] concerns human neuroblastoma cell line SH-SY5Y. As to the kind of experiment: Neurotoxicity assay, SH-SY5Y cells + erastin or RSL3, MTS cell viability. Format: cell-based. Conditions: for EC50: Homo sapiens; for effect on cell viability without cell death inducers (potential cytotoxic effect of the molecule alone): doses tested maximum 50 or 100 μM; for concentration reaching almost total inhibition of induced cell death: in the presence of a ferroptosis inducer. On the procedure: as §1, §2, §3

[3] abbreviates: HT-22, HT22 cells, 0.5-1 μM Erastin, 24 h, MTS, read-out: EC50 HT22 Erastin.
Where [4] appears, read: HT-22, HT22 cells, 5-10 mM glutamate, 24 h, MTS, read-out: EC50 HT22 Glutamate.
Setting [5] is: SH-SY5Y cells, 10 μM Erastin, 24 h, MTS, read-out: EC50 SH-SY5Y Erastin.
[6] abbreviates: HT-22, HT22 cells, 0.5 μM RSL3, 24 h, MTS, read-out: EC50 HT22 RSL3.
Where [7] appears, read: SH-SY5Y cells, 5 μM RSL3, 24 h, MTS, read-out: EC50 SH-SY5Y RSL3.
Setting [8] is: HT-22, 24 h, read-out: EC50 HT22 Erastin.
[9] abbreviates: HT-22, 24 h, read-out: EC50 HT22 RSL3.
[10] abbreviates: SH-SY5Y, 24 h, read-out: EC50 SH-SY5Y RSL3.

Consider 24 molecules from patent US20240116923A1, “USE OF INDOLE, 6- AND 7-AZAINDOLE DERIVATIVES AS INHIBITORS OF FERROPTOSIS REGULATED CELL DEATH” (Seabelife, priority 2021, published 2024).

Like-named read-outs stand apart in the source and are kept apart here.

As a reminder, the EC50 is the concentration that produces a half-maximal response.

For `CCOc1ccc(-c2cc3c(Cl)ccnc3n2C(=O)OC(C)(C)C)cc1` [Compound 21, tert-butyl 4-chloro-2-(4-ethoxyphenyl)-1H-pyrrolo[2,3-b]pyridine-1-carboxylate], the EC50 in series [1] (setting [3]), in series [1] (setting [4]) and in series [2] (setting [5]) was more than 25 µM each time.
`CCOc1ccc(-c2cc3cccnc3n2CCN2CCOCC2)cc1` [Compound 20, 4-(2-(2-(4-ethoxyphenyl)-1H-pyrrolo[2,3-b]pyridin-1-yl)ethyl)morpholine]: the EC50 is 16.7 µM in series [1] (setting [6]); 5.14 µM in series [1] (setting [3]); 11.1 µM in series [1] (setting [4]); 27.4 µM in series [2] (setting [7]); 21.4 µM in series [2] (setting [5]).
Take `CCOc1ccc(-c2cc3ccncc3n2OC(=O)N(CC)CC)cc1` [Compound 34, 2-(4-ethoxyphenyl)-1H-pyrrolo[2,3-c]pyridin-1-yl diethylcarbamate]: the EC50 in series [1] (setting [8]) is more than 50 µM; in series [1] (setting [9]), 16.8 µM; in series [2] (setting [10]), 6.62 µM.
Turning to `CCOc1ccc(-c2cc3ccncc3n2OC(=O)c2ccccc2)cc1` [Compound 6, 2-(4-ethoxyphenyl)-1H-pyrrolo[2,3-c]pyridin-1-yl benzoate], the “effect on cell viability without cell death inducers (potential cytotoxic effect of the molecule alone)” value is recorded as “no effect on cell viability” in series [1] (HT22 cells, 24 h, doses tested maximum 50 or 100 μM) and “no effect on cell viability” in series [2] (SH-SY5Y cells, 24 h). The “concentration reaching almost total inhibition of induced cell death” value turned out to be 10 µM in series [1] (HT22 cells, in the presence of a ferroptosis inducer) and 1 µM in series [2] (SH-SY5Y cells). Further, the EC50 in series [1] (setting [6]) was found to be 2.31 µM; in series [1] (setting [3]), 2.05 µM; in series [1] (setting [4]), 1.64 µM; in series [2] (setting [5]), 0.18 µM.
Regarding `NCC(=O)Oc1ccc(-c2cc3cccnc3[nH]2)cc1` [Compound 8, 4-(1H-pyrrolo[2,3-b]pyridin-2-yl)phenyl glycinate], the EC50 in series [1] (setting [8]) is more than 25 µM; in series [1] (HT-22, 24 h, read-out: EC50 HT22 Glutamate), more than 25 µM; in series [1] (setting [9]), more than 50 µM; in series [2] (SH-SY5Y, 24 h, read-out: EC50 SH-SY5Y Erastin), 21.5 µM; in series [2] (setting [10]), 5.98 µM.
`Oc1ccc(-c2cc3ccc(-c4ccc(O)nc4)nc3[nH]2)cc1` [Compound 40, 5-(2-(4-hydroxyphenyl)-1H-pyrrolo[2,3-b]pyridin-6-yl)pyridin-2-ol]: the EC50 in series [1] (setting [6]) was 4.98 µM; in series [1] (setting [3]) it was 13.3 µM; in series [2] (setting [7]), 0.95 µM; in series [2] (setting [5]) it was 5.06 µM.
`CC(C)(C)OC(=O)n1c(-c2ccc(O)cc2)cc2ccccc21` [Compound 29, tert-butyl 2-(4-hydroxyphenyl)-1H-indole-1-carboxylate]: the EC50 in series [1] (setting [6]) is 3.96 µM; in series [1] (setting [3]), 8.3 µM; in series [1] (setting [4]) it was 5.5 µM; in series [2] (setting [7]), 1.46 µM.
As to `CC(CO)(CO)C(=O)Oc1ccc(-c2cc3cccnc3[nH]2)cc1` [Compound 10, 4-(1H-pyrrolo[2,3-b]pyridin-2-yl)phenyl 3-hydroxy-2-(hydroxymethyl)-2-methylpropanoate], the EC50 was more than 50 µM in series [1] (setting [6]), more than 25 µM in series [1] (setting [3]), more than 25 µM in series [1] (setting [4]) and 13.7 µM in series [2] (setting [5]).
For the molecule `CCOc1ccc(-c2cc3c(N4CCCCC4)ccnc3[nH]2)cc1` [Compound 13, 2-(4-ethoxyphenyl)-4-(piperidin-1-yl)-1H-pyrrolo[2,3-b]pyridine], the EC50 in series [1] (setting [6]) turned out to be 44.1 µM; in series [1] (setting [3]), 3.62 µM; in series [1] (setting [4]) it was 0.92 µM; in series [2] (setting [7]), 9.25 µM; in series [2] (setting [5]), 1.11 µM.
Turning to `CCOc1ccc(-c2cc3ccc(Cc4ccncn4)nc3[nH]2)cc1` [Compound 42], the EC50 in series [1] (setting [6]) turned out to be 7.06 µM; in series [1] (setting [3]), 8.04 µM; in series [2] (setting [7]), 1.84 µM; in series [2] (setting [5]), 3.62 µM.
As for `CCOc1ccc(-c2cc3ccc[n+]([O-])c3[nH]2)cc1` [Compound 23, 2-(4-ethoxyphenyl)-1H-pyrrolo[2,3-b]pyridine-7-oxide], the EC50 in series [1] (setting [6]) is 9.93 µM; in series [1] (setting [3]), more than 25 µM; in series [1] (setting [4]), more than 25 µM; in series [2] (setting [7]) it was 2.64 µM; in series [2] (setting [5]), 26.3 µM.
As for `CCOc1ccc(-c2cc3ccc(OC(C)=O)nc3n2C(C)=O)cc1` [Compound 22, 1-acetyl-2-(4-ethoxyphenyl)-1H-pyrrolo[2,3-b]pyridin-6-yl acetate], the EC50 was determined as 9.09 µM in series [1] (setting [6]); 5.53 µM in series [1] (setting [3]); 5.31 µM in series [1] (setting [4]); 0.79 µM in series [2] (setting [7]); 1.16 µM in series [2] (setting [5]).
In the case of `CCOc1ccc(-c2cc3cccn(C(=O)OCc4ccccc4)c-3n2)cc1` [Compound 25, benzyl 2-(4-ethoxyphenyl)-7H-pyrrolo[2,3-b]pyridine-7-carboxylate], the EC50 in series [1] (setting [6]) was found to be 19 µM; in series [1] (setting [3]), 3.39 µM; in series [1] (setting [4]), 1.65 µM; in series [2] (setting [7]), 5.25 µM; in series [2] (setting [5]) it was 1.4 µM. Besides, the “effect on cell viability without cell death inducers (potential cytotoxic effect of the molecule alone)” value in series [2] (SH-SY5Y cells, 24 h) is recorded as “no effect on cell viability”. The “concentration reaching almost total inhibition of induced cell death” value in series [2] (SH-SY5Y cells) worked out at 10 µM.
For the molecule `Oc1ccc(-c2cc3ccc(Cl)nc3[nH]2)cc1` [Compound 37, 4-(6-chloro-1H-pyrrolo[2,3-b]pyridin-2-yl)phenol], the EC50 in series [1] (setting [6]) turned out to be 9.11 µM; in series [1] (setting [3]), 11.8 µM; in series [2] (setting [7]) it was 1.22 µM; in series [2] (setting [5]) it was 7.13 µM.
With `CCOc1ccc(-c2cc3c(Nc4ccccc4)ccnc3n2S(=O)(=O)c2ccccc2)cc1` [Compound 43, 2-(4-ethoxyphenyl)-N-phenyl-1-(phenylsulfonyl)-1H-pyrrolo[2,3-b]pyridin-4-amine], the EC50 came out at 2.35 µM in series [1] (setting [6]), 0.53 µM in series [1] (setting [3]), 1.35 µM in series [2] (setting [7]) and 1.64 µM in series [2] (setting [5]).
For the molecule `COc1ccc(-c2cc3ccccc3n2O)cc1` [Compound 3, 2-(4-methoxyphenyl)-1H-indol-1-ol], the EC50 amounted to 0.32 µM in series [1] (setting [6]), 0.92 µM in series [1] (setting [3]) and 1.13 µM in series [1] (setting [4]).
For the molecule `Oc1ccc(-c2cc3cc(Br)ccc3[nH]2)cc1` [Compound 30, 4-(5-bromo-TH-indol-2-yl)phenol], the EC50 in series [1] (setting [8]) and in series [1] (setting [9]) was 7.5 µM throughout.
Consider `Oc1ccc2[nH]c(-c3ccc(OCc4ccccc4)cc3)cc2c1` [Compound 32, 2-(4-(benzyloxy)phenyl)-1H-indol-5-ol], for which the EC50 is 1 µM in series [1] (setting [6]) and 2 µM in series [1] (setting [3]).
On to `CCOc1ccc(-c2[nH]c3ncccc3c2I)cc1` [Compound 17, 2-(4-ethoxyphenyl)-3-iodo-1H-pyrrolo[2,3-b]pyridine], for which the EC50 in series [2] (setting [5]) was more than 50 µM.
On the same count and under the same terms, in the case of `CCOc1ccc(-c2[nH]c3ncccc3c2C(O)C(F)(F)F)cc1` (stereo not drawn) [Compound 18, 1-(2-(4-ethoxyphenyl)-1H-pyrrolo[2,3-b]pyridin-3-yl)-2,2,2-trifluoroethan-1-ol] it was more than 50 µM.
Consider `CCOc1ccc(-c2cc3c(-c4ccc(C(=O)c5ccccc5)cc4)ccn(Cc4ccccc4)c-3n2)cc1` [Compound 28, (4-(7-benzyl-2-(4-ethoxyphenyl)-7H-pyrrolo[2,3-b]pyridin-4-yl)phenyl)(phenyl)methanone], for which the EC50 in series [1] (setting [6]) was 17.3 µM; in series [1] (setting [3]), 23.9 µM; in series [1] (setting [4]), 14.8 µM; in series [2] (setting [7]) it was 15.8 µM; in series [2] (setting [5]), 31.3 µM.
Consider `CCOc1ccc(-c2[nH]c3ncccc3c2CN2CCN(C)CC2)cc1` [Compound 16, 2-(4-ethoxyphenyl)-3-((4-methylpiperazin-1-yl)methyl)-1H-pyrrolo[2,3-b]pyridine], for which the EC50 in series [2] (setting [5]) is more than 50 µM.
As to `Cn1c(-c2ccc(O)cc2)cc2ccccc21` [Compound 33, 4-(1-methyl-1H-indol-2-yl)phenol], the values for the EC50 in series [1] (setting [6]), in series [1] (setting [3]) and in series [1] (setting [4]) were 10.8 µM, 32 µM and 16 µM, respectively.
With `c1ccc(COc2ccc(-c3cc4ccccc4[nH]3)cc2)cc1` [Compound 31, 2-(4-(benzyloxy)phenyl)-1H-indole], the EC50 is more than 25 µM in series [1] (setting [8]) and more than 15 µM in series [1] (setting [9]).
